PMC9896003, “Discovery of a novel, liver-targeted thyroid hormone receptor-β agonist, CS271011, in the treatment of lipid metabolism disorders” (Frontiers in Endocrinology, 2023)
Like-named read-outs stand apart in the source and are kept apart here.

Columns and labels:
[1] = tested on: HMC; test: Cell viability in kidney cell line HMC; assay type: cell-based
[2] = tested on: DIO mice; test: RT-PCR of hepatic genes, DIO mice; assay type: in vivo, C57BL/6J mice
Description: The total RNA of fresh liver tissue was extracted using TRIzol reagent (Invitrogen, Carlsbad, CA, USA), and RNA quality was measured using a Nanodrop2000 by calculating the 260/280 ratio. Based on the manufacturer’s instructions, we reverse-transcribed 5 μg of isolated RNA with a Transcriptor First Strand cDNA Synthesis Kit (Roche Diagnostics, Mannheim, Germany). Real-time PCR (RT−PCR) was conducted to measure the relative expression of genes by using SYBR Green Master (ROX) dye (Roche Diagnostics, Mannheim, Germany) and the ABI Prism 7000 Sequence Detection System (Applied Biosystems, Foster City, CA, USA). Changes in target mRNA were standardized to β-actin mRNA levels for each sample in triplicate. The 2-^△△Ct method was used to determine the relative mRNA expression levels.

[3] = tested on: DIO mice; test: DIO mouse study: serum biochemical indices; assay type: in vivo
Description: (§1) All animal experiments were performed at Chipscreen Biosciences (Shenzhen, China) according to the National Research Council’s Guide for the Care and Use of Laboratory Animals and the Regulations of Experimental Animal Administration issued by the State Committee of Science and Technology of China and approved by Shenzhen Peking University - The Hong Kong University of Science and Technology Medical Center’s Ethics Committee for the Welfare of Laboratory Animals (approval no. 2022-988). Forty C57BL/6J mice (4-5 weeks, male) were received and raised under a standard 12-hour light/dark cycle (lights off at 7:00 pm). Thirty-five mice were fed a fat-rich diet (SYSE Bio-tech, D12492i; 60% of kcal from fat; Changzhou, China), and the other five mice were fed a control diet (Guangdong Medical Laboratory Animal Center, Foshan, China) ad libitum for 12 weeks. […] The mice from Group 2 to Group 5 were fed a high-fat diet. […] Body weight and food intake were measured once daily during treatment. All mice were sacrificed after treatment, and blood, hearts, and livers were collected for further validation.
Blood samples were collected from the orbit and placed for 30 min at room temperature and then centrifuged (3500 g, 15 min, 4°C), and the serum was collected for TG, TC, AST, and ALT tests. For the liver TG and TC tests, the right lobe of the liver was collected and weighed accurately, and then isopropanol and absolute ethanol were added at a ratio of 1:9 (weight/volume) for tissue homogenization on ice. Next, the liver sample was centrifuged (10,000 g and 2500 g, 10 min, at 4°C for liver TG and TC extraction, respectively), and the supernatant was collected for liver TG and TC assays. Tests for TC, ALT and AST were performed following the manufacturer’s instructions.

[4] = tested on: DIO mice; test: RT-PCR of myocardial energy metabolism gene mGPDH, DIO mice; assay type: in vivo, C57BL/6J mice
[5] = tested on: DIO mice; test: DIO mouse study: liver histology (H&E, Oil Red O, NAFLD activity score); assay type: in vivo, C57BL/6J mice; settings: 3 mg/kg, 10 weeks
Description: All animal experiments were performed at Chipscreen Biosciences (Shenzhen, China) according to the National Research Council’s Guide for the Care and Use of Laboratory Animals and the Regulations of Experimental Animal Administration issued by the State Committee of Science and Technology of China and approved by Shenzhen Peking University - The Hong Kong University of Science and Technology Medical Center’s Ethics Committee for the Welfare of Laboratory Animals (approval no. 2022-988). Forty C57BL/6J mice (4-5 weeks, male) were received and raised under a standard 12-hour light/dark cycle (lights off at 7:00 pm). Thirty-five mice were fed a fat-rich diet (SYSE Bio-tech, D12492i; 60% of kcal from fat; Changzhou, China), and the other five mice were fed a control diet (Guangdong Medical Laboratory Animal Center, Foshan, China) ad libitum for 12 weeks. […] The mice from Group 2 to Group 5 were fed a high-fat diet. Treatments started on the thirteenth week and lasted 10 weeks, in which Groups 1 and 2 received solvent (0.2% CMC-Na), and the other groups were administered corresponding compounds orally once daily (the volume of solvent was 5 ml/kg). Body weight and food intake were measured once daily during treatment. All mice were sacrificed after treatment, and blood, hearts, and livers were collected for further validation.
After the animals were sacrificed, the left hepatic lobe was collected (approximately 100–200 mg) and fixed in 4% paraformaldehyde overnight. The liver tissue was sectioned at a thickness of 5 μm after being paraffin-embedded. Liver sections were stained with haematoxylin and eosin (H&E), and the NAFLD activity scores were determined based on the steatosis, lobular inflammation, and hepatocyte ballooning degeneration in accordance with the standard proposed by Kleiner ([17]).
To analyse the content of lipids in the liver, Oil Red O (ORO) staining of isobutyl alcohol-frozen liver sections was conducted by Wuhan Servicebio Technology Co., Ltd. (Wuhan, China). Each positive region of ORO staining was quantified for each sample using Imangepro plus 6.0 software ([…]).

[6] = tested on: DIO mice; test: DIO mouse study: liver TG and TC; assay type: in vivo, C57BL/6J mice; settings: 3 mg/kg, 10 weeks
Description: as §1
Blood samples were collected from the orbit and placed for 30 min at room temperature and then centrifuged (3500 g, 15 min, 4°C), and the serum was collected for TG, TC, AST, and ALT tests. […]

[7] = Tissue distribution study (heart, liver, kidney, blood) by LC-MS/MS; assay type: in vivo, C57BL/6J mice; settings: for Concentration, Blood / Concentration, Heart / Kp at 24 h: 24h; for Concentration, Blood / Concentration, Heart: mean; for Kp at 2 h / Kp at 4 h / Kp at 24 h: C57BL/6J, mouse
Description: To detect the tissue distribution of drugs, the heart, liver, and kidney of mice in Group 1, Group 2, and Group 3 were collected at 2 hours, 4 hours, and 24 hours, respectively. Then, 1 ml of 1X PBS was added for tissue homogenization. 50 μl tissue homogenate was added to 500 μl of extractant (containing 200 ng/ml methanol). The protein of tissue samples was precipitated by vortex oscillation for 5 min and centrifuged at 13,000 rpm for 10 min, and 150 μL of supernatant was collected and determined by LC−MS/MS procedures.

[8] = tested on: NRK49F; test: Cell viability in kidney cell line NRK49F; assay type: cell-based
[9] = Serum pharmacokinetic study, single oral gavage; assay type: in vivo, C57BL/6J mice; settings: for AUC(0-inf) / AUC(0-t) / Cmax / Tmax / half-life / MRT last: male, mouse, serum, po, orally once, normal C57BL/6J mice; for MRT last: read-out: MRT(0-t)
Description: Then, each group was subdivided into three groups for blood extraction: Group 1, sample collection after 0.5 hours and 2 hours of treatment (n=3); Group 2, sample collection after 1 hour and 4 hours of treatment (n=3); and Group 3, sample collection after 8 hours and 24 hours of treatment (n=3). Approximately 100 μl of blood was collected from the orbit and centrifuged (3500 g, 15 min, 4°C) to extract serum and placed on ice (0°C), and 20 μl of serum was added to 200 μl of extractant (containing 200 ng/ml methanol), which was assessed by liquid chromatography-tandem mass spectrometry (LC−MS/MS) procedures. […]

[10] = DIO mouse study: body weight, food intake, liver and heart weight; assay type: in vivo; settings: DIO mice
Description: as §1

[11] = 10 weeks of treatment, CS271011 1 and 3 mg/kg, MGL-3196 3 mg/kg
[12] = heart/blood, 10 mg/kg oral, read-out: Ratio (tissue/blood), Heart
[13] = kidney/blood, 10 mg/kg oral, read-out: Ratio (tissue/blood), Kidney
[14] = liver/blood, 10 mg/kg oral, read-out: Ratio (tissue/blood), Liver
[15] = male, heart / blood, 3 mg/kg oral, read-out: Ratio (tissue/blood), Heart
[16] = male, kidney / blood, 3 mg/kg oral, read-out: Ratio (tissue/blood), Kidney
[17] = male, liver / blood, 3 mg/kg oral, read-out: Ratio (tissue/blood), Liver
[18] = 10 weeks oral once daily, CS271011 1 and 3 mg/kg, MGL-3196 3 mg/kg

CC(C)c1cc(Oc2c(Cl)cc(-n3nc(C#N)c(=O)[nH]c3=O)cc2Cl)n[nH]c1=O [MGL-3196, 2-[3,5-dichloro-4-(5-isopropyl-6-oxo-1,6-dihydropyridazin-3-yloxy)phenyl]-3,5-dio xo-2,3,4,5-tetrahydro[1,2,4]triazine-6-carbonitrile]
cell viability [1]: no effect on cell viability | hepatic expression of Abcc3 [2]: negatively regulated | hepatic expression of Csad, Slc25a30 and Tff3 (downregulated in DIO mice) [2]: rescued | hepatic expression of Cyp4a10 [2]: obviously downregulated | hepatic expression of Cyp39a1 [2]: upregulated | hepatic expression of Hsd17b6 [2]: diminished | hepatic expression of LDLR, Cyp7a1, Cyp17a1, Srebp2 and Sqle [2]: positively regulated | hepatic expression of Srebf1 [2]: strongly downregulated | Serum TG ([3]; 3 mg/kg, 10 weeks, mean ± SD (DIO control 1.25±0.38)): 0.59 ± 0.11 mmol/L | Serum TC ([3]; 3 mg/kg, 10 weeks, mean ± SD (DIO control 7.79±1.67)): 3.46 ± 1.61 mmol/L | serum ALT and AST levels ([3]; 10 weeks of treatment): no influence | serum TC vs. DIO control [3, 11]: significant reduction | serum TG vs. DIO control [3, 11]: significant reduction | mGPDH expression in the hearts of DIO mice [4]: barely affects | NAS score [5]: equivalent efficacy | ORO staining area [5]: decreased | hepatic ballooning [5]: mitigated hepatic ballooning with a considerable effect | steatosis score [5]: decreased | hepatic TC concentration [6]: markedly reduced | hepatic TG concentration [6]: markedly reduced | tissue distribution (liver targeting) ([7]; 3 mg/kg and 10 mg/kg oral, especially 2 and 4 hours after administration): liver-targeted | Concentration, Blood ([7]; 3 mg/kg oral): 25.40 ng/g | Concentration, Heart ([7]; 3 mg/kg oral): 78.08 ng/g | Concentration, Blood ([7]; 10 mg/kg oral): 42.40 ng/g | Concentration, Heart ([7]; 10 mg/kg oral): 147.91 ng/g | Kp at 2 h [7, 12]: 0.113 | Kp at 4 h [7, 12]: 0.112 | Kp at 24 h [7, 12]: 3.49 | Kp at 2 h [7, 13]: 0.572 | Kp at 4 h [7, 13]: 0.607 | Kp at 24 h [7, 13]: 0.734 | Kp at 2 h [7, 14]: 4.59 | Kp at 4 h [7, 14]: 4.63 | Kp at 24 h [7, 14]: 4.8 | Kp at 2 h [7, 15]: 0.213 | Kp at 4 h [7, 15]: 0.146 | Kp at 24 h [7, 15]: 3.07 | Kp at 2 h [7, 16]: 0.64 | Kp at 4 h [7, 16]: 0.617 | Kp at 24 h [7, 16]: 1.25 | Kp at 2 h [7, 17]: 6.59 | Kp at 4 h [7, 17]: 6.17 | Kp at 24 h [7, 17]: 3.17 | cell viability [8]: no effect on cell viability | bioavailability in vivo, comparison at the same dosage ([9]; 3 mg/kg and 10 mg/kg oral): higher bioavailability in vivo than CS271011 | AUC(0-inf) ([9]; 3mg/kg): 9470 ng·h/mL | AUC(0-t) ([9]; 3mg/kg): 9330 ng·h/mL | Cmax ([9]; 3mg/kg): 1140 ng/mL | Tmax ([9]; 3mg/kg): 2 h | half-life ([9]; 3mg/kg): 228 min | MRT last ([9]; 3mg/kg): 6.3 h | AUC(0-inf) ([9]; 10mg/kg): 35800 ng·h/mL | AUC(0-t) ([9]; 10mg/kg): 35600 ng·h/mL | Cmax ([9]; 10mg/kg): 4870 ng/mL | Tmax ([9]; 10mg/kg): 2 h | half-life ([9]; 10mg/kg): 180 min | MRT last ([9]; 10mg/kg): 5.8 h | liver weight and LW/BW ([10]; 10-week drug intervention): dramatically reduced | body weight [10, 18]: dramatic reduction in body weight | food intake [10, 18]: neither CS271011 nor MGL-3196 impeded food intake
